The experiment deals with sGC α1/β1 heterodimer (Homo sapiens (Human), UniProt Q02108+Q02153). Briefly: Cell-based sGC functional assay (cyclic GMP assay for sGC activator: CASA assay). As to conditions: CHO-K1/sGC cells; for Emax: CHO-K1, activity expressed as percentage of compound A (standard), read-out: % Activation; for EC50: inflection point, 4P fit, read-out: IP. Details: % Activation: concentration or dose not given beside the values. From the text: Cell-Based sGC Functional Assay (Cyclic GMP Assay for sGC Activator: CASA Assay)
Soluble guanylate cyclase (sGC) is a heme-containing enzyme that converts GTP to secondary messenger cGMP. Increases in cGMP levels affect several physiological processes including vasorelaxation through multiple downstream pathways. […] Heme-dependent activators (HDAs) preferentially activate sGC containing a ferrous heme group. To determine the effect of sGC activators on enzyme activity, the CASA assay was developed to monitor the generation of cGMP in a cell line that stably expresses the heterodimeric sGC protein.
A CHO-K1 cell line stably expressing the sGC α1/β1 heterodimer was generated using a standard transfection protocol. CHO-K1 cells were transfected with plasmids pIREShyghsGCα1 and pIRESneo-hsGCβ1 simultaneously using FUGENE reagent. Clones that stably express both subunits were selected with hygromycin and neomycin for ˜2 weeks. Clone #7 was chosen for the assay and was designated CHO-K1/sGC. CHO-K1/sGC cells were maintained in F-K12 medium containing 10% heat-inactivated Fetal Bovine Serum (FBS), 100 μg/mL penicillin/streptomycin, 0.5 mg/mL hygromycin and 0.25 mg/mL G418. The cells were then cryopreserved in LN2. On the day of the assay, the cells were thawed and resuspended in EBSS Assay Buffer (Sigma, E3024) supplemented with 5 mM MgCl2, 10 mM HEPES (4-(2-hydroxyethyl)piperazine-1-ethanesulfonic acid) and 0.05% BSA (bovine serum albumin) (EAB) and cell density was then adjusted to 2.25×10^5/mL with EAB. IBMX (3-isobutyl-1-methylxanthin, 0.5 mM) was added to inhibit degradation of cGMP. Compounds were diluted from DMSO stock solutions and added to the assay at a final DMSO concentration of 2.5%. Cells were pre-incubated in the presence and absence of 1 μM of Diethylenetriamine/nitric oxide adduct (DETA-NO; Sigma, 17018) for 30 min at 25° C. Compounds are subsequently added and incubated for 1 hr at 37° C. At the end of the incubation period, the reaction was terminated and the cells were lysed with the detection reagents from Cisbio Kits. The level of intracellular cGMP was determined using an HTRF-based assay kit (CisBio, 62GM2PEC), which detects the displacement of a fluorescence labeled cGMP from its specific antibody. The cGMP produced by test compounds was directly compared to the maximum cGMP production (this value was set to equal 100% activation.) of the published sGC-HDA compound A:
(Example 1 in WO 2010/065275, published Jun. 10, 2010). The test compounds' activity were then expressed as a percentage of compound A, the standard in every experiment. This percent activation was calculated either in the presence or absence of DETA-NO which was then plotted. Inflection points (IP) and maximum fold induction was derived using Abase analysis software for 4P fit.

The results in this text go back to patent publication US10030027B2, “Soluble guanylate cyclase stimulators” (MERCK SHARP & DOHME CORP., priority 2015, dated 2018).

Each structure is given as a SMILES string.

Sequence of sGC α1/β1 heterodimer (Q02108 whole entry): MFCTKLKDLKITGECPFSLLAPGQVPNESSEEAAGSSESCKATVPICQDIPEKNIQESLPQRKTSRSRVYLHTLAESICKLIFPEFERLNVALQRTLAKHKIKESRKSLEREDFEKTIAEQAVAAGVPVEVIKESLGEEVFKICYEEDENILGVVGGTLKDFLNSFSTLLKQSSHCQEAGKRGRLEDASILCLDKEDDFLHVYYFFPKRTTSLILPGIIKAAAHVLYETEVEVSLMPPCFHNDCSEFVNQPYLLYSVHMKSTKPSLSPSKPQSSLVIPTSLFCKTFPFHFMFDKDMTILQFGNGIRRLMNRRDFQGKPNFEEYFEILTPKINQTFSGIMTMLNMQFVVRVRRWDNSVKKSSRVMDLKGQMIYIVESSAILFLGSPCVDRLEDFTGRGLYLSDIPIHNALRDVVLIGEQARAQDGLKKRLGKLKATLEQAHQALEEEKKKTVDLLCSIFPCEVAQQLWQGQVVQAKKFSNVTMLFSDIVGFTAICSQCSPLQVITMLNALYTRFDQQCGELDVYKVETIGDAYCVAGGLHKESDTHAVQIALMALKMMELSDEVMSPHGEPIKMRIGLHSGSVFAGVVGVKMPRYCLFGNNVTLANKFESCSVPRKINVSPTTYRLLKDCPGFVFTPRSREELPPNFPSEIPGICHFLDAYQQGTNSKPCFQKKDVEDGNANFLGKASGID
Sequence of sGC α1/β1 heterodimer (Q02153 whole entry): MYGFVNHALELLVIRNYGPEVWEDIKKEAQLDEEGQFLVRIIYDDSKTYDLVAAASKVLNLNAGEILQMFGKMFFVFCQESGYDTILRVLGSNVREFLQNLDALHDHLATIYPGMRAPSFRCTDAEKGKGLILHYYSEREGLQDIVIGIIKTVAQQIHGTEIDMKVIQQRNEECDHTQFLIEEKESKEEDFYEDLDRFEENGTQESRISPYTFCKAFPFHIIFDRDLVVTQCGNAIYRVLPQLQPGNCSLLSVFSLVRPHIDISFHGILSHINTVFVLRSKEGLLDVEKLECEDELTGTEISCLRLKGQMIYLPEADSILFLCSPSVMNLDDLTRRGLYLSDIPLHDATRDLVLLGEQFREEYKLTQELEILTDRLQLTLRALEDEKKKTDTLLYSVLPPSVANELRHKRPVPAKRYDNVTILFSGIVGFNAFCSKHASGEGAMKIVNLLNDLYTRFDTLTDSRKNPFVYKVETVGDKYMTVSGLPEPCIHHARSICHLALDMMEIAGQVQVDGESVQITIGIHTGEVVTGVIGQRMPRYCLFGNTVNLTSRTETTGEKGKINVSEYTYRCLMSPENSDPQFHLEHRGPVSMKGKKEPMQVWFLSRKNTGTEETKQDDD

Turning to `Cc1sc(C2(C)C(=O)Nc3nc(-c4nn(CCC(F)(F)C(F)(F)F)c5cc(Cl)ccc45)nc(N)c32)nc1-c1ccc(C(=O)O)cc1` (stereo not shown) [Example 94B, 4-(2-{4-amino-2-[6-chloro-1-(3,3,4,4,4-pentafluorobutyl)-1H-indazol-3-yl]-5-methyl-6-oxo-6,7-dihydro-5H-pyrrolo[2,3-d]pyrimidin-5-yl}-5-methyl-1,3-thiazol-4-yl)benzoic acid], the Emax worked out at 108% and the EC50 was 178 nM. On the same counts, the results for `CC1(c2ccc(CC(=O)O)cc2)C(=O)Nc2nc(-c3nn(Cc4ccccc4F)c4cc(Cl)ccc34)nc(N)c21` (stereo not shown) [Example 117A, 2-(4-{4-amino-2-[6-chloro-1-(2-fluorobenzyl)-1H-indazol-3-yl]-5-methyl-6-oxo-6,7-dihydro-5H-pyrrolo[2,3-d]pyrimidin-5-yl}phenyl)acetic acid] are 69% and 302 nM.

On to `CC(C)(Cc1coc(C2(C)C(=O)Nc3nc(-c4nn(Cc5ccccc5F)c5ccccc45)nc(N)c32)n1)C(=O)O` (stereo not shown) [Example 56A, 3-(2-{4-amino-2-[1-(2-fluorobenzyl)-1H-indazol-3-yl]-5-methyl-6-oxo-6,7-dihydro-5H-pyrrolo[2,3-d]pyrimidin-5-yl}oxazol-4-yl)-2,2-dimethylpropanoic acid], for which the Emax was 116% and the EC50 worked out at 134 nM.

In the case of `C[C@@]1(c2ccc(CCC(=O)O)cc2)C(=O)Nc2nc(-c3nn(Cc4ccccc4F)c4ccc(F)cc34)nc(N)c21` [Example 71B, (S)-3-(4-{4-amino-2-[5-fluoro-1-(2-fluorobenzyl)-1H-indazol-3-yl]-5-methyl-6-oxo-6,7-dihydro-5H-pyrrolo[2,3-d]pyrimidin-5-yl}phenyl)propanoic acid], the Emax was determined as 78% and the EC50 stood at 73 nM. The corresponding values for `CC1(c2nc(CCC(=O)O)co2)C(=O)Nc2nc(-c3nn(Cc4ccccc4F)c4cc(Cl)ccc34)nc(N)c21` (stereo not shown) [Example 50A, 3-(2-{4-amino-2-(6-chloro-1-(2-fluorobenzyl)-1H-indazol-3-yl)-5-methyl-6-oxo-6,7-dihydro-5H-pyrrolo[2,3-d]pyrimidin-5-yl}oxazol-4-yl)propanoic acid] are 98% and 407 nM. The corresponding values for `C[C@H](O)[C@@H](NC(=O)CCc1ccc([C@]2(C)C(=O)Nc3nc(-c4nn(Cc5ccccc5F)c5ncccc45)nc(N)c32)cc1)C(=O)O` [Example 107B, (5S)-(3-(4-{4-amino-2-[1-(2-fluorobenzyl)-1H-pyrazolo[3,4-b]pyridin-3-yl]-5-methyl-6-oxo-6,7-dihydro-5H-pyrrolo[2,3-d]pyrimidin-5-yl}phenyl)propanoyl)-D-threonine] are 113% and 397 nM. Turning to `CC1(c2cn(CCC(=O)O)nn2)C(=O)Nc2nc(-c3nn(CCC(F)(F)C(F)(F)F)c4cc(Cl)ccc34)nc(N)c21` (stereo not shown) [Example 29B, 3-(4-{4-amino-2-[6-chloro-1-(3,3,4,4,4-pentafluorobutyl)-1H-indazol-3-yl]-5-methyl-6-oxo-6,7-dihydro-5H-pyrrolo[2,3-d]pyrimidin-5-yl}-1H-1,2,3-triazol-1-yl)propanoic acid], the Emax came to 82%. With `Cc1ccc2c(-c3nc(N)c4c(n3)NC(=O)[C@@]4(C)c3nc(CC(C)(C)C(=O)O)cs3)nn(Cc3ccc(C)c(F)c3F)c2n1` [Example 75A, (S)-3-(2-{4-amino-2-[1-(2,3-difluoro-4-methylbenzyl)-6-methyl-1H-pyrazolo[3,4-b]pyridin-3-yl]-5-methyl-6-oxo-6,7-dihydro-5H-pyrrolo[2,3-d]pyrimidin-5-yl}thiazol-4-yl)-2,2-dimethylpropanoic acid], the Emax turned out to be 155% and the EC50 worked out at 238 nM. Take `CC(C)(CCc1csc(C2(C)C(=O)Nc3nc(-c4nn(Cc5ccccc5F)c5cc(Cl)ccc45)nc(N)c32)n1)C(=O)O` (stereo not shown) [Example 166A, 4-(2-{4-amino-2-[6-chloro-1-(2-fluorobenzyl)-1H-indazol-3-yl]-5-methyl-6-oxo-6,7-dihydro-5H-pyrrolo[2,3-d]pyrimidin-5-yl}-1,3-thiazol-4-yl)-2,2-dimethyl-butanoic acid]: the Emax turned out to be 86.4%. Take `CC1(c2ccc(CCCC(=O)O)cc2)C(=O)Nc2nc(-c3nn(Cc4ccccc4F)c4cc(Cl)ccc34)nc(N)c21` (stereo not shown) [Example 115A, 4-(4-{4-amino-2-[6-chloro-1-(2-fluorobenzyl)-1H-indazol-3-yl]-5-methyl-6-oxo-6,7-dihydro-5H-pyrrolo[2,3-d]pyrimidin-5-yl}phenyl)butanoic acid]: the Emax was 79% and the EC50 came out at 122 nM. `Cc1cccc(Cn2nc(-c3nc(N)c4c(n3)NC(=O)C4(C)c3nc(CC(C)(C)C(=O)O)co3)c3ccc(F)cc32)c1F` (stereo not shown) [Example 212A, 3-(2-{4-amino-2-[6-fluoro-1-(2-fluoro-3-methyl-benzyl)-1H-indazol-3-yl]-5-methyl-6-oxo-6,7-dihydro-5H-pyrrolo[2,3-d]pyrimidin-5-yl}-1,3-oxazol-4-yl)-2,2-dimethyl-propanoic acid]: the Emax amounted to 135%. In the case of `CC1(c2nc(CCC(=O)O)co2)C(=O)Nc2nc(-c3nn(Cc4ccccc4F)c4ccccc34)nc(N)c21` (stereo not shown) [Example 54A, 3-(2-{4-amino-2-[1-(2-fluorobenzyl)-1H-indazol-3-yl]-5-methyl-6-oxo-6,7-dihydro-5H-pyrrolo[2,3-d]pyrimidin-5-yl}oxazol-4-yl)propanoic acid], the Emax was found to be 106% and the EC50 is 490 nM. On to `C[C@@H](NC(=O)CCc1ccc([C@]2(C)C(=O)Nc3nc(-c4nn(Cc5ccccc5F)c5ncccc45)nc(N)c32)cc1)C(=O)O` [Example 102B, (5S)-(3-(4-{4-amino-2-[1-(2-fluorobenzyl)-1H-pyrazolo[3,4-b]pyridin-3-yl]-5-methyl-6-oxo-6,7-dihydro-5H-pyrrolo[2,3-d]pyrimidin-5-yl}phenyl)propanoyl)-D-alanine], for which the Emax is 100% and the EC50 stood at 573 nM. The corresponding values for `CC(C)(Cc1coc(C2(C)C(=O)Nc3nc(-c4nn(Cc5ccccc5F)c5ccc(F)cc45)nc(N)c32)n1)C(=O)O` (stereo not shown) [Example 72A, 3-(2-{4-amino-2-[5-fluoro-1-(2-fluorobenzyl)-1H-indazol-3-yl]-5-methyl-6-oxo-6,7-dihydro-5H-pyrrolo[2,3-d]pyrimidin-5-yl}oxazol-4-yl)-2,2-dimethylpropanoic acid] are 80% and 42 nM. On the same counts, the results for `CC1(c2cccc(CCC(=O)O)c2)C(=O)Nc2nc(-c3nn(Cc4ccccc4F)c4cc(Cl)ccc34)nc(N)c21` (stereo not shown) [Example 48A, 3-(3-{4-amino-2-(6-chloro-1-(2-fluorobenzyl)-1H-indazol-3-yl)-5-methyl-6-oxo-6,7-dihydro-5H-pyrrolo[2,3-d]pyrimidin-5-yl}phenyl)propanoic acid] are 102% and 257 nM. On to `CC1(c2nc(CCCC(=O)O)cs2)C(=O)Nc2nc(-c3nn(Cc4ccccc4F)c4cc(Cl)ccc34)nc(N)c21` (stereo not shown) [Example 49A, 4-(2-{4-amino-2-(6-chloro-1-(2-fluorobenzyl)-1H-indazol-3-yl)-5-methyl-6-oxo-6,7-dihydro-5H-pyrrolo[2,3-d]pyrimidin-5-yl}thiazol-4-yl)butanoic acid], for which the Emax was found to be 91% and the EC50 stood at 119 nM. With `CC1(c2nn(C(C)(C)C(=O)O)c(=O)o2)C(=O)Nc2nc(-c3nn(CCC(F)(F)C(F)(F)F)c4cc(Cl)ccc34)nc(N)c21` (single isomer, unassigned) [Example 99B, 2-[5-{4-Amino-2-[6-chloro-1-(3,3,4,4,4-pentafluorobutyl)-1H-indazol-3-yl]-5-methyl-6-oxo-6,7-dihydro-5H-pyrrolo[2,3-d]pyrimidin-5-yl}-2-oxo-1,3,4-oxadiazol-3(2H)-yl]-2-methylpropanoic acid], the EC50 amounted to 186 nM. For the compound `CC1CCC(Cn2nc(-c3nc(N)c4c(n3)NC(=O)C4(C)c3nc(CC(C)(C)C(=O)O)co3)c3ccc(F)cc32)CC1` (racemic) [Example 137AB, 3-{2-[4-amino-2-{6-fluoro-1-[4-methylcyclohexylmethyl]-1H-indazol-3-yl}-5-methyl-6-oxo-6,7-dihydro-5H-pyrrolo[2,3-d]pyrimidin-5-yl]-1,3-oxazol-4-yl}-2,2-dimethylpropanoic acid], the “% Activation” value (activity expressed as percentage of compound A (standard)) came out at 98.4%.
